Tests used:
histamine H4 receptor [1] = target: T1, histamine H4 receptor (Homo sapiens, UniProt Q9H3N8); test: FLIPR Ca2+ assay in HEK-293 cells stably expressing histamine H4 receptor and Gαqi5; assay type: cell-based; conditions: Kb for antagonists and inverse agonists, EC50 for partial agonists; block of histamine-induced Ca2+ increase
T1 construct: expressed in transfected cells; host or cells: HEK-293 cells, transient transfection with pCINeo vector; membranes
Text: Histamine H4 receptors from mammalian species have been cloned. Methods to clone, express, and assess the potency and functional activity of such cloned genes are well known to those skilled in the art of molecular biology. […] Before testing, cells are loaded with a Ca^+2 sensitive fluorescent dye, in this case Fluo-4. In the case of partial agonist or agonist ligands, addition of compound to the cells leads to the increase in intracellular Ca^+2 which is detected by FLIPR (Fluorescence Imaging Plate Reader; Molecular Devices, Sunnyvale, Calif.) technology. […] The fluorescence intensities measured before addition of the test compound are subtracted from the fluorescence intensities at later time points. Peak response values determined at each concentration of ligand are expressed as a percentage of the response obtained with the full agonist histamine. Concentration versus response data are analyzed to obtain compound potency as Kb values for antagonists and inverse agonists and as EC50 values for partial agonists.

histamine H4 receptor [2] = target: T1, histamine H4 receptor; test: 3H-histamine competition binding assay, membranes of transfected HEK-293 cells; conditions: displacement of [3H]-histamine, 25° C., 1 h; read-out: Potency in Competition Binding Assay
Method: In this assay, membranes were prepared from HEK-293 cells transiently transfected with the pCINeo expression vector harboring the histamine H4 receptor by homogenization of the cells on ice in TE buffer (50 mM Tris-HCl buffer, pH 7.4, containing 5 mM EDTA), 1 mM benzamidine, 2 μg/ml aprotinin, 1 μg/ml leupeptin, and 1 μg/ml pepstatin. The homogenate was centrifuged at 40,000 g for 20 minutes at 4° C. This step was repeated, and the resulting pellet was resuspended in TE buffer. Aliquots were frozen at −70° C. until needed. On the day of assay, membranes were thawed and diluted with TE buffer. Competition radioligand binding assays were performed with increasing concentrations of test compound in the presence of [^3H]-histamine incubated at 25° C. for 1 h in a total volume of 0.5 ml of 50 mM Tris, 5 mM EDTA, pH 7.4. All binding reactions were terminated by filtration under vacuum onto polyethylenimine (0.3%) presoaked Unifilters (PerkinElmer Life Sciences) or Whatman GF/B filters (Whatman, Clifton, N.J.) followed by three brief washes with 4 ml of ice-cold TE buffer. Bound radiolabel was determined by liquid scintillation counting. For all of the radioligand competition binding assays, IC50 values and Hill slopes were determined by Hill transformation of the data and Ki values were determined by the Cheng-Prusoff equation.

neuropathic pain = test: Bennett model: chronic constriction injury of sciatic nerve, mechanical stimulus; assay type: in vivo, rat
Text: To prepare animals for the model, an incision of about 1.5 cm was made about 0.5 cm below the rat pelvis. The biceps femoris and the gluteous superficialis (right side) were separated and the sciatic nerve exposed, isolated, and four loose ligatures (5-0 chromic [NT]) with 1 mm spacing were placed around it. The rats were allowed to recover and then placed in a cage with soft bedding for 10 days before assessment of pain response to mechanical stimulus by the method described above for the Chung model.

thermal hyperalgesia = test: Complete Freund's adjuvant-induced thermal hyperalgesia; assay type: in vivo, rat; conditions: 30 minutes before testing, 48 hours after CFA, thermal stimulus
Method: To assess the effectiveness of representative compounds of the invention against hyperalgesia, animals were tested in an acute model of adjuvant-induced thermal hyperalgesia (see for example, Honore, et al. Behavioural Brain Research 167 (2006) 355-364; Carroll, et al. US Patent application US 2006/0025614A 1). To prepare animals for the model, a solution of Complete Freund's adjuvant (150 microliters of a 50% aqueous solution, Sigma Chemical Company, St. Louis, Mo.) was injected into the plantar surface of test paw of the animal (rat). Rats so injected develop a hyperalgesia to thermal stimulation which is assessed 48 hours after injection of the Complete Freund's adjuvant using a commercially available paw thermal stimulator (UARDG, Dept. of Anesthesiology, Univ. California at San Diego, La Jolla, Calif.). For testing, rats were placed individually in a so-called ‘hot box’ (i.e. Plexiglass cubicles mounted on a glass surface) maintained at 30° C., and allowed a 30 minute habituation period. A thermal stimulus, in the form of radiant heat emitted from a focused projection bulb, was then applied to the plantar surface of each hind paw. The stimulus current was maintained (e.g. at 4.5 Amp) and the time of exposure set to limit the extent of possible tissue damage (e.g. maximum of 20 seconds exposure to thermal heating from the projection bulb). The time (in seconds) for the withdrawal of the paw that was injected with the Complete Freund's adjuvant (CFA) and subjected to the thermal stimulus was recorded, and this was compared to the time (in seconds) for withdrawal of the uninjected paw subjected to the same thermal stimulus. […] To test the effect of a compound on the hyperalgesia, the test compound is dissolved in a vehicle (e.g. water or saline) and administered by i.p. (intraperitoneal) injection 30 minutes before the testing of the animal's response to the thermal stimulus to the paws. The antihyperalgesic activity of the compound in blocking the pain is shown by an increase in the time to withdraw the CFA-injected paw subjected to thermal stimulus. Experiments are done with single-dose and escalating-dosages of the test compound, and dose response curves constructed to determine ED50 values.

T1 sequence (Q9H3N8 whole entry, species assumed): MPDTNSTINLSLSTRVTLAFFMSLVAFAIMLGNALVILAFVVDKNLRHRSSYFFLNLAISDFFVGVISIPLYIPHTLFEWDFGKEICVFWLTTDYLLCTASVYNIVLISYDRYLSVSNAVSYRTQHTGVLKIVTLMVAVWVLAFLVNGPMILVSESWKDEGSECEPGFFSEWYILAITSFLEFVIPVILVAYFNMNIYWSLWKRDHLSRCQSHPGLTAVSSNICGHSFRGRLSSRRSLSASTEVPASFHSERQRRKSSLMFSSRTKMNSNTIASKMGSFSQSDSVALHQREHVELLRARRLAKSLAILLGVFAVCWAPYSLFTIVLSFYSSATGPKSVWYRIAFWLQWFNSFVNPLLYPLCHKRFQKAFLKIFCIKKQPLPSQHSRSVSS

Compound	Potency in the FLIPR assay (histamine H4 receptor [1]) [nM]	Ki (histamine H4 receptor [2]) [nM]	MPE (neuropathic pain; 250 micromole/kg i.p.) [%]	MPE (neuropathic pain; 500 micromole/kg i.p.) [%]	MPE (thermal hyperalgesia; 30 micromole/kg i.p.) [%]	MPE (thermal hyperalgesia; 300 micromole/kg i.p.) [%]	MPE (neuropathic pain; 100 micromole/kg i.p.) [%]	MPE (neuropathic pain; 300 micromole/kg i.p.) [%]	MPE (thermal hyperalgesia; 100 micromole/kg i.p.) [%]
CNC1CN(c2nc(N)nc3c2CCCc2ccccc2-3)C1 [Example 6, 4-(3-Methylamino-azetidin-1-yl)-6,7-dihydro-5H-benzo[6,7]cyclohepta[1,2-d]pyrimidin-2-ylamine]	9	11							
CN1CCN(C(=O)c2cc3cc(Cl)ccc3[nH]2)CC1 [Example 3, reference compound]			32	73	27	81			
CN1CCN(c2cc(-c3ccc(C#N)cc3)nc(N)n2)CC1.O=C(O)/C=C\C(=O)O [Example 1, 4-(2-Amino-6-(4-methylpiperazin-1-yl)pyrimidin-4-yl)benzonitrile, maleate]	58	35			62		18	63	88

— US7985745B2, “Method for pain treatment” (Abbott Laboratories, priority 2006, dated 2011)
